Tested on: cancer cell lines (OE33, 786-0 and panel)
Experiment: Colony formation assay
Assay type: cell-based, human
Conditions: for colony formation: 7 days
Description: The effect of inhibitor treatment on Notch-target gene transcription also was investigated (FIGS. 2C and 2D). […] As proof of specificity, transcription of the housekeeping gene, HPRT, was unaltered in treated cells. To test the effects of Notch inhibition on proliferation, a colony formation assay was performed.
To extend the analysis of tumor cell growth inhibition, several commonly used cancer cell lines were selected to test for sensitivity to Inhibitor No. 1-134-83 (FIGS. 3A and 3B). […] In this analysis, sensitivity to DAPT is taken to indicate specific inhibition of Notch activity. […] Cells that are refractory to DAPT were equally resistant to Inhibitor No. 1-134-83.
Cells were plated into a 6 well plate at a density of 2000 cells/cm^2. Inhibitor treatment commenced 24 hours post seeding, and the media containing inhibitor was changed every 48 hours thereafter. After 168 hours, cells were fixed with ice cold methanol for 10 minutes, stained for 1 hour with crystal violet, de-stained with water, and allowed to dry.

With CCOC(=O)COc1ccc(/C=C2\SC(=S)NC2=O)cc1OC [1-134-83] the colony formation (786-0 and OE33 cells) was “dose-dependent reduction”, the effective concentration (cancer cell lines) was 5 µM and the cellular toxicity (cells refractory to DAPT, dose nearly 10× the effective concentration) was “did not induce any cellular toxicity”. For the same molecule, the colony formation (insensitive cell lines, high doses) was “do not show changes in colony formation ability” and the colony formation (sensitive (Notch dependent) cell lines) was “dose-dependent decrease in colony formation”.

Source: patent US10501413B2, “Inhibitors of the Notch transcriptional activation complex and methods for use of the same” (UNIVERSITY OF MIAMI, priority 2015, dated 2019)
